According to patent US20260327655A1, “SMALL-MOLECULE REGULATED ALTERNATIVE SPLICING” (priority 2023, published 2026):

What was measured:
RS1-10, HepG2 cells = experiment: RS1-10 performance in HepG2 cells; format: cell-based, human; details: CBA promoter, 18 hours, FIG. 10D
Description: The human SH-SY5Y neuroblastoma cell line or the human hepatic HepG2 cell line was cultured in EMEM+10% FBS, collected after trypsinization, and then dispensed into 96-well plates (cell culture-treated). Each well of the plate was seeded with 1.0×10^5 cells in 100 μL culture medium. After a 1-hour incubation in the tissue culture incubator (5% CO2, 37 degrees C.), plasmid DNA was complexed with a transfection reagent, such as Lipofectamine 3000, and added to respective wells on the plate. Each well received an equivalent of 100 ng of plasmid DNA complexed with 0.15 μL Lipofectamine 3000 (Opti-MEM I was used as diluent). Triplicate wells were used for each condition tested in the experiment. The plasmids utilized in the human SH-SY5Y neuroblastoma cell line encoded either a CBA promoter or cloned human Synapsin promoter upstream of the RS1-10 construct that controlled the expression of a Firefly Luciferase gene followed by a SV40 polyadenylation signal. The plasmids utilized in the HepG2 cells encoded a CBA promoter upstream of the RS1-10 construct that controlled the expression of a Firefly Luciferase gene followed by a SV40 polyadenylation signal.
After a 10-minute incubation at room temperature, either DMSO vehicle or TA was added to the wells of the plate. […] Finally, the luminescent signal from each well was measured with a plate reader. […]

RS1-1 and variants = experiment: Luciferase induction assay, RS1-1 and variants in HEK-293T cells; format: cell-based, human; details: RS1-1, RS1-2, RS1-3, RS1-4, RS1-7, and RS1-9; FIG. 9A; 18 hours
Description: (§1) HEK-293T cells were cultured in DMEM+10% FBS, collected after trypsinization, and dispensed into 96-well plates (cell culture-treated). Each well of the plate was seeded with 1.0×10^5 cells in 100 μL culture medium. After a 1-hour incubation in the tissue culture incubator (5% CO2, 37° C.), plasmid DNA was complexed with a transfection reagent, such as Lipofectamine 3000, and added to respective wells on the plate. Each well received 100 ng of plasmid DNA complexed with 0.15 μL Lipofectamine 3000. The plasmids utilized in the experiment encoded a CMV promoter upstream of the RS1-1 variant that controlled the expression of a Firefly Luciferase gene followed by a SV40 polyadenylation signal. After a 10-minute incubation at room temperature, either DMSO vehicle or a splice modulator compound at specified doses was added to the wells of the plate. Plates were then incubated for 18 hours in a tissue culture incubator. Endpoint analysis was performed by adding 100 μL of a Luciferase substrate, such as Steady-Luc Firefly Luciferase substrate, to each well of the assay plate. The liquid contents of each was transferred to a 96-well plate, mixed again for 2 min on an orbital shaker, and incubated at room temperature for 5 min. Finally, the luminescent signal from each well was measured with a plate reader.

RS3-1 and variants = experiment: Luciferase induction assay, RS3-1 and variants in HEK-293T cells; format: cell-based, human; details: 18 hours
Description: as §1, with “RS3-1 construct and variants” for “RS1-1 variant”, “116B” for “a splice modulator compound”, “reader. […]” for “reader.”

[1] = system: RS3-13 minigene (Firefly Luciferase), HEK-293T cells; experiment: Luciferase induction assay, RS3-13 with splice modulator compounds in HEK-293T cells; format: cell-based; details: Homo sapiens, 18 hours, n of 3, read-out: Mean fold-induction of luciferase (relative to vehicle control)
Description: (§2) HEK-293T cells were cultured in DMEM+10% FBS, collected after trypsinization, and then dispensed into 96-well plates (cell culture-treated). Each well of the plate was seeded with 1.0×10^5 cells in 100 μL culture medium. After a 1-hour incubation in a tissue culture incubator (5% CO2, 37 degrees C.), plasmid DNA was complexed with a transfection reagent, such as Lipofectamine 3000, and added to respective wells on the plate. Each well received an equivalent of 100 ng of plasmid DNA complexed with 0.15 μL Lipofectamine. Triplicate wells were used for each condition tested in the experiment. The plasmid utilized in the experiment encoded a CMV promoter upstream of RS3-13 that controlled the expression of a Firefly Luciferase gene followed by a SV40 polyadenylation signal. After a 10-minute incubation at room temperature, either DMSO vehicle or specified compound at specified dose was added to the wells of the plate. Plates were then incubated for 18 hours in a tissue culture incubator. Endpoint analysis was performed by adding 100 uL Steady-Luc Firefly Luciferase substrate to each well of the assay plate. After mixing, the liquid contents of each was transferred to a 96-well plate, mixed again for 2 min on an orbital shaker, and incubated at room temperature for 5 min. Finally, the luminescent signal from each well was measured with a with PerkinElmer Envision plate reader. The results of this assay show RS3-13 responded to the majority of the splice modulator compounds used (FIG. 14D) Bars represent mean+/−standard deviation of 3 wells normalized to vehicle controls.

[2] = system: RS2-3 minigene (Firefly Luciferase), HEK-293T cells; experiment: Luciferase induction assay, RS2-3 with splice modulator compounds in HEK-293T cells; format: cell-based; details: Homo sapiens, 18 hours, n of 3, read-out: Mean fold-induction of luciferase (relative to vehicle control)
Description: as §2, with “of the RS2-3 variant” for “of RS3-13”, “show RS2-3” for “show RS3-13”, “(FIG. 13C)” for “(FIG. 14D)”

RS4-1 and variants = experiment: Luciferase induction assay, RS4-1 and variants in HEK-293T cells; format: cell-based, human; details: 18 hours, FIGS. 15A, 15B
Description: as §1, with “of the RS4-1 construct and variants that controlled” for “of the RS1-1 variant that controlled”, “vehicle or 24 A at specified” for “vehicle or a splice modulator compound at specified”, “adding 100 uL of a” for “adding 100 μL of a”, “plate reader. […]” for “plate reader.”

[3] = system: RS1-10 minigene (Firefly Luciferase), HEK-293T cells; experiment: Luciferase induction assay, RS1-10 with splice modulator compounds in HEK-293T cells; format: cell-based; details: Homo sapiens, 18 hours, n of 3, read-out: Mean fold-induction of luciferase (relative to vehicle control)
Description: as §2, with “upstream of the RS I-10 variant that controlled” for “upstream of RS3-13 that controlled”, “assay show RS1-10 responded to” for “assay show RS3-13 responded to”, “compounds used in a dose responsive manner (FIG. 9C).” for “compounds used (FIG. 14D)”, “manner (FIG. 9C). Bars represent” for “used (FIG. 14D) Bars represent”

Structure (SMILES)	fold-induction of luciferase (RS1-10, HepG2 cells)	fold induction of luciferase (RS1-1 and variants)	fold induction of luciferase compared to vehicle, constructs vs RS3-1 (RS3-1 and variants; 100 nM (FIGS. 14A, 14B), 200 nM or 600 nM (FIG. 14C))	fold induction of luciferase, concentration dependence (RS3-1 and variants; RS3-1 variants, 200 nM and 600 nM (FIG. 14C))	fold induction at 0.1 µM ([1]; RS3-13, 100 nM)	fold induction at 1 µM ([1]; RS3-13, 1,000 nM)	fold induction at 0.1 µM ([2]; RS2-3, 100 nM)	fold induction at 1 µM ([2]; RS2-3, 1,000 nM)	fold-induction of luciferase (RS4-1 and variants)	fold induction at 0.1 µM ([3]; RS1-10, 100 nM)	fold induction at 1 µM ([3]; RS1-10, 1,000 nM)
Cc1cn2cc(-c3ccc(-c4ccc(C5CNC5)nn4)c(O)c3)cc(F)c2n1.Cl [1 A, 2-(6-(azetidin-3-yl)pyridazin-3-yl)-5-(8-fluoro-2-methylimidazo[1,2-a]pyridin-6-yl)phenol, HCl]	showed fold-induction of luciferase	increasing fold induction of luciferase with increasing concentration of splice modulator	–	–	–	–	–	–	–	–	–
Cc1cn2cc(-c3nc(=O)n4cc(N5CCN[C@@H](C)C5)cc(F)c4n3)cc(F)c2n1 [Compound 116B, (S)-9-fluoro-2-(8-fluoro-2-methylimidazo[1,2-a]pyridine-6-yl)-7-(3-methylpiperazin-1-yl)-4H-pyrido[1,2-a][1,3,5]triazin-4-one]	–	–	Some of the constructs show higher fold induction of luciferase in the presence of 116B compared to vehicle than RS3-1	higher fold induction of luciferase with higher concentrations of 116B	33.4	64.6	19.8	39.9	increasing fold-induction of luciferase with increasing concentrations	71.8	96.6
